{"source": "patent US11135181B2", "about": "“Treatment for depression and depressive disorders” (Medlab IP Pty Ltd, priority 2014, dated 2021)", "assay_type_in_all_cases": "in vivo, human", "key": {"[1]": {"tested_on": "subjects diagnosed with depression", "assay": "Outcome Questionnaire-45 (OQ45) in subjects with treatment-resistant depression", "conditions": "n=8", "from_the_text": "OQ45 is a self-report symptom and distress inventory designed as an independent measure of symptom distress and functioning to assess the response to intervention at regular intervals such as on a weekly bases (α=0.93, & κ>0.83). The OQ45 consists of 45 items with a five point scale. A high total score […] indicates a high level of symptom distress (anxiety, depression, and somatic, work and social role problems). Lower scores indicate less severity of problems. Average community non-clinical scores cut off (CO) occur at about >63, and changes of 14 points in either direction are typically considered clinically significant change and are reliable. […]\n(§1) Depression was monitored in the treated subjects over the eight week course using a variety of well known methodologies: the Beck Depression Inventory (BDI); the Depression and Anxiety Stress Scale (DASS); Outcome Questionnaire-45 (OQ45); the Warwick-Edinburgh Mental Well-Being Scale (WBS); and a Quality of Life (QoL score).\n(§2) Three subjects were administered a probiotic supplement containing magnesium orotate for eight weeks, and measures of depression (BDI and OQ45) assessed. […]\n(§3) BDI and OQ45 were assessed for each subject as described in Example 1, at the beginning of the study prior to the initiation of treatment and again at the completion of eight weeks of combined magnesium orotate plus probiotic administration. […]"}, "[2]": {"tested_on": "subjects diagnosed with depression", "assay": "Beck Depression Inventory (BDI) in subjects with treatment-resistant depression", "from_the_text": "BDI is a 21-item self-report inventory that is widely used to assess depression. It has high internal constancy and correlates highly with other self-report measures of depression (α=0.60−0.90).\n(§4) The study received ethical approval from the Medical Research Ethics Committee (MREC) University of Queensland, Australia, within the guidelines of the National Statement on Ethical Conduct in Human Research. All participants provided written informed consent for the study.\nThe subjects were selected for inclusion in the study as follows. At the completion of a 15 week study investigating SAMe treatment of depression, suboptimal treatment responders (n=8) were inducted into the present orotate study after a 2 week wash out period. Sub-optimal treatment responders were defined as those still experiencing clinical depression by the SAMe study endpoint, which consisted of six participants with major depression and two with moderate depression. The subjects comprised six females between 33 to 70 years of age (mean age of 53 years) and two males between 48-54 years of age (mean age of 51 years). The orotate study was conducted as a single group study for 8 weeks (mean time for SAMe responders) with a focus was on efficacy. […]\nas §1, §2, §3"}, "[3]": {"tested_on": "subjects diagnosed with depression", "assay": "Clinical depression status at study endpoint", "conditions": "8 weeks, 1600 mg per day", "from_the_text": "as §4\n(§5) The subjects were selected for inclusion in the study as follows. At the completion of a 15 week study investigating SAMe treatment of depression, suboptimal treatment responders (n=8) were inducted into the present orotate study after a 2 week wash out period. Sub-optimal treatment responders were defined as those still experiencing clinical depression by the SAMe study endpoint, which consisted of six participants with major depression and two with moderate depression. The subjects comprised six females between 33 to 70 years of age (mean age of 53 years) and two males between 48-54 years of age (mean age of 51 years). The orotate study was conducted as a single group study for 8 weeks (mean time for SAMe responders) with a focus was on efficacy.\n(§6) Inclusion criteria also required a primary diagnosis of major depression that has a verifiable history of being treatment resistant, current medication type being SSRIs (for standardisation purposes), and at least 18 years of age with no upper age limit. Participants were also asked not to take any nutritional supplements such as B group vitamins or other supplements that have antidepressant effects (a list was provided to participants).\nThe magnesium orotate was administered in capsule form, each capsule comprising 400 mg magnesium orotate. The daily dose of 1600 mg magnesium orotate was provided as two capsules taken in the morning and two capsules taken at night."}, "[4]": {"tested_on": "subjects diagnosed with depression", "assay": "Depression and Anxiety Stress Scale (DASS) in subjects with treatment-resistant depression", "from_the_text": "The DASS short form is a 21 item self-report scale designed to measure depression and anxiety and was used here as a secondary self-report assessment. The DASS has high internal consistency and yields meaningful discriminations in a variety of settings (α=0.88-0.96).\nas §4, §5\nas §6, with “participants). […]” for “participants).”\nas §1"}, "[5]": {"tested_on": "subjects diagnosed with depression", "assay": "Quality of Life (QoL) score in subjects with treatment-resistant depression", "from_the_text": "QoL has 16 items and evaluates perceived satisfaction with life over a number of domains (α=0.85). QoL typically provides an important evaluation of perception of life circumstances and stressors.\nas §4, §5, §6\nThe magnesium orotate was administered in capsule form, each capsule comprising 400 mg magnesium orotate. […]\nas §1"}, "[6]": {"tested_on": "subjects diagnosed with depression", "assay": "Warwick-Edinburgh Mental Well-Being Scale (WBS) in subjects with treatment-resistant depression", "from_the_text": "WBS has 14 items and assesses feelings and thoughts associated with mood (α=0.91) with higher scores indicate better mood. It has a different factor structure to the BDI and DASS and was used in this study as a measure of mood improvement.\nas §4\nThe subjects were selected for inclusion in the study as follows. At the completion of a 15 week study investigating SAMe treatment of depression, suboptimal treatment responders (n=8) were inducted into the present orotate study after a 2 week wash out period. Sub-optimal treatment responders were defined as those still experiencing clinical depression by the SAMe study endpoint, which consisted of six participants with major depression and two with moderate depression. […]\nas §1"}, "[7]": {"conditions": "after 8 weeks of 1600 mg per day oral capsules, n=8"}}, "data": [{"substance": "magnesium orotate", "values": [{"measurement": "OQ45 mean score, Post-Treatment", "setting": "[1]; after 8 weeks of 1600 mg per day oral capsules", "value": 54.2}, {"measurement": "OQ45 mean score, Pre-Treatment", "setting": "[1]; baseline before treatment", "value": 86.6}, {"measurement": "BDI change score (mean, pre- versus post treatment)", "setting": "[2]; 8 weeks, 1600 mg per day, p=0.021", "value": 19}, {"measurement": "BDI mean score, Post-Treatment", "setting": "[2]; [7]", "value": 14.1}, {"measurement": "BDI mean score, Pre-Treatment", "setting": "[2]; baseline before treatment, n=8 SAMe suboptimal responders on SSRIs", "value": 33.8}, {"measurement": "share of the group in clinical remission by the endpoint", "setting": "[3]", "value": 50, "unit": "%"}, {"measurement": "share of the group mildly depressed", "setting": "[3]", "value": 10, "unit": "%"}, {"measurement": "share of the group that remained moderately depressed", "setting": "[3]", "value": 30, "unit": "%"}, {"measurement": "share of the group without any clinical change", "setting": "[3]", "value": 10, "unit": "%"}, {"measurement": "DASS mean score, Post-Treatment", "setting": "[4]; [7]", "value": 25.2}, {"measurement": "DASS mean score, Pre-Treatment", "setting": "[4]; baseline before treatment, n=8", "value": 44.7}, {"measurement": "DASS paired difference, mean (DASS-DASS8)", "setting": "[4]; baseline minus week 8, 1600 mg per day, Sig. (2-tailed) .032", "value": 19.5}, {"measurement": "QoL mean score, Post-Treatment", "setting": "[5]; [7]", "value": 76.0}, {"measurement": "QoL mean score, Pre-Treatment", "setting": "[5]; baseline before treatment, n=8", "value": 55.2}, {"measurement": "QoL paired difference, mean (QoL-QoL8)", "setting": "[5]; baseline minus week 8, 1600 mg per day, Sig. (2-tailed) .027", "value": "−20.75"}, {"measurement": "WBS mean score, Pre-Treatment", "setting": "[6]; baseline before treatment, n=8, higher score = better mood", "value": 34.6}, {"measurement": "WBS paired difference, mean (MWBS-WMBS8)", "setting": "[6]; baseline minus week 8, 1600 mg per day, Sig. (2-tailed) .025", "value": "−11"}]}]}
